Experimental data as given in publication PMC9130766 (Frontiers in Pharmacology, 2022).
Entries after “also recorded” stand apart in the source; their conditions may differ. Read-outs that look alike come from different tables or passages of the source.

How the values were obtained:
[1] = target: T1, bacterial neuraminidase (BNA) (Clostridium perfringens, UniProt P10481); experiment: biochemical; type: biochemical, C. perfrigens
[2] = target: T1, bacterial neuraminidase (BNA); experiment: biochemical; type: biochemical, C. perfrigens; remark: listed apart in the source
[3] = target: T1, bacterial neuraminidase (BNA); experiment: biochemical; type: binding, C. perfrigens
E. coli = experiment: Cell growth of E. coli (OD 600 nm); type: cell-based, Escherichia coli; details: up to a concentration of 296 µM, compared to the control
Protocol: Escherichia coli was used in the study. All experiments were conducted in Difco™ Nutrient Broth (DNB) medium at 37°C. The E. coli was removed from glycerol stock at −80 C and transferred to the DNB plate. Next, in a 250 ml flask, a fresh single colony was inoculated into DNB (25 ml) medium and cultured at 37 C with 250 rpm for 24 h. Using the SpectraMaxM3 Multi-Mode Microplate Reader cell growth was found in the presence of different concentrations of compounds at optical densities of 600 nm. All experiments were conducted with at least three independent cultures ([Cho et al., 2013]).
Bacterial biofilms are a serious health concern owing to their abilities to tolerate antibiotics, host defense systems, and other external stresses ([Sharma et al., 2019]). It is generally accepted that neuraminidase participates in biofilm production together with quorum sensing. […] The crystal violet staining method was used for the detection of biofilm production. To investigate biofilm inhibition, E. coli was cultured overnight with or without inhibitor 1 in a 96-well plate.

E. coli biofilm = experiment: Antibiofilm assay (crystal violet staining); type: cell-based; details: Escherichia coli, 24 h, 37°C, read-out: concentration giving 50% inhibition of E. coli biofilm production
Protocol: A 96-well microtiter plate (polystyrene) was used to measure the anti-biofilm activity as described previously ([Mohanta et al., 2020]). First, 180 μl of DNB and 10 μl of the test pathogens (OD = 1.0, 600 nm) were added to individual wells. Then, 10 μl solutions of ugonin J with different concentrations was added to each well and the contents of each well were mixed thoroughly. The prepared plate was then incubated for 24 h in a static condition at 37°C. After incubation, the supernatant in the wells in the plate was discarded and the residue washed with phosphate buffered saline (pH 7.2) to remove the free-floating non-adherent cells from the wells in the plate. The plate was then air-dried for about 45 min before the bacteria in the wells were fixed with 2% (w/v) sodium acetate. This was followed by flooding the wells with crystal violet stain (0.1%, w/v) and incubation in the dark for 30 min. After this, the wells in the plate were washed with sterile deionized water to remove all dye and allowed to dry. After drying, each well in the plate was filled with 200 μl of ethanol (95%, v/v) and the absorbance of this solution was measured at 620 nm using the SpectraMax M3 Multi-Mode Microplate Reader. All assays were conducted in triplicate and the mean ± standard deviation was calculated. […]

[4] = target: T1, bacterial neuraminidase (BNA); type: biochemical, C. perfrigens
[5] = pH 5.0, read-out: IC50, inhibition of bacterial neuraminidase (BNA)
[6] = IC50, inhibition of bacterial neuraminidase (BNA)

T1 sequence (P10481 whole entry, looked up): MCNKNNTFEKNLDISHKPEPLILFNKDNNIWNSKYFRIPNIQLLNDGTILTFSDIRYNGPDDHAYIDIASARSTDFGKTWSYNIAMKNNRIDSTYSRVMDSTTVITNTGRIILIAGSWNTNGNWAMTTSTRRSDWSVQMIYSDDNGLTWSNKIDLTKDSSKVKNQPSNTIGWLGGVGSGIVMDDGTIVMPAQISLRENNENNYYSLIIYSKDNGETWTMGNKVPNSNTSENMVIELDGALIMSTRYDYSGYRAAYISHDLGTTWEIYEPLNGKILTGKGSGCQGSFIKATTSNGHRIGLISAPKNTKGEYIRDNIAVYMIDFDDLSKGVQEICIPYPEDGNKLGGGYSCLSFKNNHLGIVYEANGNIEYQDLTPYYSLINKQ

Row | SMILES | Ki [1] [nM] | Kinetic mode [1] | IC50 [2, 5] [nM] | K SV (Stern-Volmer quenching constant) [3] [L/mol] | Kd [3] [nM] | n (number of binding sites) [3] | fold greater BNA inhibitive ability than parent (mother) compound [2] [fold] | reversibility of BNA inhibition [1] | fluorescence (FS) reduction of BNA [3] | growth inhibition of E. coli (E. coli) | IC50 (E. coli biofilm) [nM] | k 5 [4] [min⁻¹] | k 6 [4] [min⁻¹] | IC50 [2, 6] [nM]
1 | CC1=CCCC(C)(C)C1Cc1c(O)c(O)cc2oc3c(=O)c4c(O)cc(O)cc4oc3c12 (centres unmarked) [Compound 4, ugonin M] | 120 | Noncompetitive (0.12) | 150 | 810000 | 1180 | 1.13 |  |  |  |  |  |  |  | 
2 | CC1(C)CCCC2(C)Oc3cc4oc(-c5ccc(O)c(O)c5)cc(=O)c4c(O)c3CC12 (centres unmarked) [Compound 6, ugonin U] | 290 | Noncompetitive (0.29) | 350 | 50000 | 33300 | 1.44 |  |  |  |  |  |  |  | 
3 | C=C1CCCC(C)(C)C1Cc1c(O)cc2c(c1O)C(=O)CC(c1ccc(O)c(O)c1)O2 (centres unmarked) [Compound 2, 2-(3,4-dihydroxyphenyl)-6-[(2,2-dimethyl-6 methylenecyclohexyl)methyl]-5,7-dihydroxy-chroman-4-one] | 60 | Noncompetitive (0.06) | 70 | 2.53e+06 | 746 | 1.01 | 250 |  |  |  |  |  |  | 
4 | C=C1CCCC(C)(C)[C@@H]1Cc1c(O)cc2oc(-c3ccc(O)c(O)c3)cc(=O)c2c1O [Compound 1, ugonin J] |  | noncompetitive inhibitor; also recorded: Noncompetitive (0.05) | 50 | 4.77e+06 | 282 | 1.30 |  | reversible inhibitor | complete FS reduction | no growth inhibition | 18000 | 0.0103 | 0.0486 | 
5 | O=c1cc(-c2ccc(O)c(O)c2)oc2cc(O)cc(O)c12 [Luteolin, reference compound] |  |  | 4400 |  |  |  |  |  | did not undergo FS reduction |  |  |  |  | 
6 | O=C1C[C@@H](c2ccc(O)c(O)c2)Oc2cc(O)cc(O)c21 [Eriodictyol, reference compound] |  |  | 17800 |  |  |  |  |  |  |  |  |  |  | 
7 | O=c1c(O)c(-c2ccc(O)c(O)c2)oc2cc(O)cc(O)c12 [Quercetin, reference compound] |  |  |  |  |  |  |  |  |  |  |  |  |  | 20400
8 | CC1(C)CCC[C@@]2(C)Oc3c(c(O)cc4oc(-c5ccc(O)c(O)c5)cc(=O)c34)C[C@@H]12 [Compound 5, ugonin S] | 250 | Noncompetitive (0.25) | 280 | 70000 | 16700 | 1.24 |  |  |  |  |  |  |  | 140
